Experimental findings from patent US12257184B2, “Ocular device and drug delivery system, with case” (priority 2019, dated 2025) are described below.

The data set in a line: Ex vivo release of therapeutic agent from insert into phosphate buffer, UV scanning spectrophotometer. It is filed as physicochemical. Conditions: drug 20%, phosphate buffer pH 7, 37° C. Here is the method:
Ocular Daily Wear is defined by FDA Class II CFR 866.5925 products currently indicated for ocular use and sclera tissue contact.
To begin testing, a UV scanning spectrophotometer concentration calibration curve for the therapeutic agent was established. The insert was prepared to the specification in the particular Table, and the time duration sample plan for measurement was determined. The insert was weighed to establish T=0. The insert was immersed in phosphate buffer of a fixed constant volume. A mean body temperature of 37° C. (e.g., from about 36.5° C. to about 37.5° C.) was simulated for the identified time interval. The insert was transferred and immersed at the end of each time period into a new phosphate buffer test container. The simulated mean 37° C.-body temperature was continued to next time interval. The UV scanning spectrophotometer data was generated for each time interval sample. The release rate was calculated versus time for the therapeutic agent, and graphical plots of the data were generated.

[1] abbreviates: Table 8, Rod, 2 Component: EVA (40% vinyl acetate) 80%, no PEO.
Setting [2] is: Table 8, In Device, 3 Component: EVA (40% vinyl acetate) 40%, PEO 40%.
Where [3] appears, read: Table 9, In Device, 3 Component: EVA (40% vinyl acetate) 40%, PEO 40%.

Regarding `CC(=O)OCC(=O)[C@@]1(O)[C@H](C)C[C@H]2[C@@H]3CCC4=CC(=O)C=C[C@]4(C)[C@@]3(F)[C@@H](O)C[C@@]21C` [Dexamethasone 21 Acetate], the “1 Day % Release” value under setting [1] was 1.89%.
Take `C[C@@H]1C[C@H]2[C@@H]3CCC4=CC(=O)C=C[C@]4(C)[C@@]3(F)[C@@H](O)C[C@]2(C)[C@@]1(O)C(=O)COP(=O)(O)O` [Dexamethasone Phosphate]: the “1 Day % Release” value turned out to be 82.7% under setting [2]; 82.7% (Table 8, In Device, 3 Component: EVA (40% vinyl acetate) 40%, PEO 40%, listed as dexamethasone phosphate); 3.39% under setting [1]. Moreover, the “2 Day % Release” value under setting [2] amounted to 85.3%.
As to `CN(C)CC/C=C1/c2ccccc2COc2ccc(CC(=O)O)cc21` [Olopatadine FB, Olopatadine], under setting [3], the “1 Day % Release” value worked out at 35% and the “2 Day % Release” value is 43%.
